From patent publication US6093732A, “4-hydroxyquinoline-3-carboxamides and hydrazides as antiviral agents” (Pharmacia & Upjohn Company, priority 1998, dated 2000)

Target: T1, HCMV polymerase (Human cytomegalovirus, UniProt P08546)
T1 construct: made in house; host or cells: recombinant baculovirus-infected SF-9 cells
Assay: HCMV polymerase scintillation proximity assay (SPA), modified version
Format: biochemical
Settings: CMV polymerase; Table 1; modified assay with 4.5 mM DTT, compounds in 100% DMSO; read-out: Antiviral Selective Polymerase IC50 Values, CMV
Experimental: The HCMV polymerase assay is performed using a scintillation proximity assay (SPA) as described in several references, such as N. D. Cook, et al., Pharmaceutical Manufacturing International, pages 49-53 (1992); K. Takeuchi, Laboratory Practice, September issue (1992); U.S. Pat. No. 4,568,649 (1986); which are incorporated by reference herein. Reactions are performed in 96-well plates. The assay is conducted in 100 μl volume with 5.4 mM HEPES (pH 7.5), 11.7 mM KCl, 4.5 mM MgCl2, 0.36 mg/ml BSA, and 90 nM ^3 H-dTTP. Assays are run with and without CHAPS, (3-[(3-Cholamidopropyl)-dimethylammonio]-1-propane-sulfonate) at a final concentration of 2 mM. HCMV polymerase is diluted in enzyme dilution buffer containing 50% glycerol, 250 mM NaCl, 10 mM HEPES (pH 7.5), 100 μg/ml BSA, and 0.01% sodium azide. The HCMV polymerase, which is expressed in recombinant baculovirus-infected SF-9 cells and purified according to literature procedures, is added at 10% (or 10 μl) of the final reaction volume, i.e., 100 μl. Compounds are diluted in 50% DMSO and 10 μl are added to each well. Control wells contain an equivalent concentration of DMSO. Unless noted otherwise, reactions are initiated via the addition of 6 nM biotinylated poly(dA)-oligo(dT) template/primer to reaction mixtures containing the enzyme, substrate, and compounds of interest. Plates are incubated in a 25° C. or 37° C. H2 O bath and terminated via the addition of 40 μl/reaction of 0.5 M EDTA (pH 8) per well. Reactions are terminated within the time-frame during which substrate incorporation is linear and varied depending upon the enzyme and conditions used, i.e., 30 min. for HCMV polymerase. Ten μl of streptavidin-SPA beads (20 mg/ml in PBS/10% glycerol) are added following termination of the reaction. Plates are incubated 10 min. at 37° C., then equilibrated to room temperature, and counted on a Packard Topcount. Linear regressions are performed and IC50 's are calculated using computer software.
A modified version of the above HCMV polymerase assay is performed as described above, but with the following changes: Compounds are diluted in 100% DMSO until final dilution into assay buffer. In the previous assay, compounds are diluted in 50% DMSO. 4.5 mM dithiotherotol (DTT) is added to the polymerase buffer. […] Other viral polymerase assays are performed using procedures similar to those described above.

T1 sequence (P08546 whole entry): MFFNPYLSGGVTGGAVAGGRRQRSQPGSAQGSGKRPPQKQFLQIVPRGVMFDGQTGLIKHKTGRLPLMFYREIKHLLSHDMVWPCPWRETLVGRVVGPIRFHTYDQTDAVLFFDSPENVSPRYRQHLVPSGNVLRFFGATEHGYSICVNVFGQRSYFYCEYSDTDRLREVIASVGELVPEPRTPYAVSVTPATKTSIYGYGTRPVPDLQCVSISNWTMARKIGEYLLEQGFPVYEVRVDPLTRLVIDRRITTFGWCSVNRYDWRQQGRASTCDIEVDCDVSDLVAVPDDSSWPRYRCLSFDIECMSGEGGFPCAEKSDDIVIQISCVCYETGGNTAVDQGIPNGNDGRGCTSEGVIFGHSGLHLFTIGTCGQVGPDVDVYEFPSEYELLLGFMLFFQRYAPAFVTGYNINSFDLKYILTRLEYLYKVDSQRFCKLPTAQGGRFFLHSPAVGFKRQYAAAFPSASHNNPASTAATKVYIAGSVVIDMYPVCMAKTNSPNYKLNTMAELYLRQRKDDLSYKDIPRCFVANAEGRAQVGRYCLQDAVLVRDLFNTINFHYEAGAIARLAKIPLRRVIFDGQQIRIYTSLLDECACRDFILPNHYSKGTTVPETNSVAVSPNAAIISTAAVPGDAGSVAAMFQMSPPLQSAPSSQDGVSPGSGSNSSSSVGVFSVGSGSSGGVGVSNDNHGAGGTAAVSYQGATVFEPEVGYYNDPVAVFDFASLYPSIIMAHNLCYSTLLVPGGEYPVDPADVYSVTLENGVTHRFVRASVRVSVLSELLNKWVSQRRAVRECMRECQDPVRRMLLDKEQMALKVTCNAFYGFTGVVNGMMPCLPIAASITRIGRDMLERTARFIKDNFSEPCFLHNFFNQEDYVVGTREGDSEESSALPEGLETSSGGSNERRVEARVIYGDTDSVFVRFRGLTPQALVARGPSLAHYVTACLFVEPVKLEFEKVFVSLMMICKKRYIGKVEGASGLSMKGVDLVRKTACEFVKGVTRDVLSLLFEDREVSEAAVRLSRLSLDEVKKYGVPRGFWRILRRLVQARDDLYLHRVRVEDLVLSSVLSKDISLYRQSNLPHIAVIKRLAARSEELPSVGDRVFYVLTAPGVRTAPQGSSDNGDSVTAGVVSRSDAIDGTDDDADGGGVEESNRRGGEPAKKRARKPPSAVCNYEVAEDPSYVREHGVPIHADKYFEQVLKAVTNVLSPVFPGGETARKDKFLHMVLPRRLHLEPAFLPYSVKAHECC

| IC50 [µM] | SMILES |
| --- | --- |
| 24 | O=C(NCc1ccc(Cl)cc1)c1cnc2c(F)cc(O)cc2c1O [Example 3, N-[(4-Chlorophenyl)methyl]-8-fluoro-4,6-dihydroxy-3-quinoline-carboxamide] |
| 3.4 | O=C(NCc1ccc(Cl)cc1)c1cnc2c(F)cc(Br)cc2c1O [Example 4] |
| 55.3 | O=C(NCc1ccc(Cl)cc1)c1cnc2cc(C(F)(F)F)cc(C(F)(F)F)c2c1O [Example 8, N-[(4-Chlorophenyl)methyl]-4-hydroxy-5,7-bis(trifluoromethyl)-3-quinolinecarboxamide] |
| 21.2 | Cc1ccc2c(O)c(C(=O)NCc3ccc(Cl)cc3)cnc2c1 [Example 11, N-[(4-Chlorophenyl)methyl]-4-hydroxy-7-methyl-3-quinoline-carboxamide] |
| 3.3 | O=C(NCc1ccc(Cl)cc1)c1cnc2c(F)ccc(F)c2c1O [Example 17, N-[(4-Chlorophenyl)methyl]-5,8-difluoro-4-hydroxy-3-quinolinecarboxamide] |
| < 3.1 | O=C(NCc1ccc(Cl)cc1)c1cnc2c(F)c(F)ccc2c1O [Example 18, N-[(4-Chlorophenyl)methyl]-7,8-difluoro-4-hydroxy-3-quinoline-carboxamide] |
| 16 | CN(C)c1ccc2c(O)c(C(=O)NCc3ccc(Cl)cc3)cnc2c1 [Example 27, N-[(4-Chlorophenyl)methyl]-7-(dimethylamino)-4-hydroxy-3-quinolinecarboxamide] |
| 17.9 | O=C(NCc1ccc(Cl)cc1)c1cnc2cc(NS(=O)(=O)Cc3ccccc3)ccc2c1O [Example 34, N-[(4-Chlorophenyl)methyl]-4-hydroxy-7-[[(phenylmethyl)-sulfonyl]amino]-3-quinolinecarboxamide] |
| 9.2 | O=C(NCc1ccc(Cl)cc1)c1cnc2cc(NS(=O)(=O)c3ccc(Cl)cc3)ccc2c1O [Example 35, N-[(4-Chlorophenyl)methyl]-7-[[(4-chlorophenyl)sulfonyl]amino]-4-hydroxy-3-quinolinecarboxamide] |
| 7.8 | O=C(NNc1ccc(Cl)cc1)c1cnc2c(F)cccc2c1O [Example 36, 8-Fluoro-4-hydroxy-3-quinolinecarboxylic acid 2-(4-chlorophenyl) hydrazide] |
| 3.2 | Cc1cc(F)c2ncc(C(=O)NCc3ccc(Cl)cc3)c(O)c2c1 [Example 38, N-[(4-Chlorophenyl)methyl]-8-fluoro-4-hydroxy-6-methyl-3-quinolinecarboxamide] |
| 19.2 | O=C(NCc1ccc(Cl)cc1)c1cnc2cccc(O)c2c1O [Example 42, N-[(4-Chlorophenyl)methyl]-4,5-dihydroxy-3-quinolinecarboxamide] |
| 1.3 | O=C(NCc1ccc(Cl)cc1)c1cnc2c(Cl)c(Cl)ccc2c1O [Example 43, 7,8-Dichloro-N-[(4-chlorophenyl)methyl]-4-hydroxy-3-quinolinecarboxamide] |
| 4.6 | O=C(NCc1ccc(Cl)cc1)c1cnc2c(O)cccc2c1O [Example 45, N-[(4-Chlorophenyl)methyl]-4,8-dihydroxy-3-quinoline-carboxamide] |
| 39.7 | O=C(NCc1ccc(Cl)cc1)c1cnc2ccc(S(=O)(=O)Nc3ccnn3-c3ccccc3)cc2c1O [Example 47, N-[(4-Chlorophenyl)methyl]-4-hydroxy-6-[[(1-phenyl-1H-pyrazol-5-yl)amino]sulfonyl]-3-quinolinecarboxamide] |
| 6.5 | N#Cc1cccc2c(O)c(C(=O)NCc3ccc(Cl)cc3)cnc12 [Example 48, N-[(4-Chlorophenyl)methyl]-8-cyano-4-hydroxy-3-quinoline-carboxamide] |
| 3.7 | O=C(NCc1ccc(Cl)cc1)c1cnc2c([N+](=O)[O-])cccc2c1O [Example 49, N-[(4-Chlorophenyl)methyl]-4-hydroxy-8-nitro-3-quinoline-carboxamide] |
| 6.9 | Cc1c(N)ccc2c(O)c(C(=O)NCc3ccc(Cl)cc3)cnc12 [Example 50, 7-Amino-N-[(4-chlorophenyl)methyl]-4-hydroxy-8-methyl-3-quinolinecarboxamid] |
| 12.2 | N#Cc1cc(F)c2ncc(C(=O)NCc3ccc(Cl)cc3)c(O)c2c1 [Example 51, N-[(4-Chlorophenyl)methyl]-6-cyano-8-fluoro-4-hydroxy-3-quinolinecarboxamide] |
| 11 | NC(=S)c1cc(F)c2ncc(C(=O)NCc3ccc(Cl)cc3)c(O)c2c1 [Example 52, 6-(Aminothioxomethyl)-N-[(4-chlorophenyl)methyl]-8-fluoro-4-hydroxy-3-quinolinecarboxamide] |
| 8.6 | O=C(NNc1ccc(Cl)cc1)c1cnc2c(F)cc(I)cc2c1O [Example 54, 8-Fluoro-4-hydroxy-6-iodo-3-quinolinecarboxylic acid 2-(4-chlorophenyl)hydrazide] |
| 5 | Cc1cc(F)c2ncc(C(=O)NNc3ccc(Cl)cc3)c(O)c2c1 [Example 55, 8-Fluoro-4-hydroxy-6-methyl-3-quinolinecarboxylic acid 2-(4-chlorophenyl)hydrazide] |
| 1 | O=C(NCc1ccc(Cl)cc1)c1cnc2ccc(-c3ccccc3)cc2c1O [Example 58, N-((4-Chlorophenyl)methyl)-4-hydroxy-6-phenyl-3-quinoline-carboxamide] |

More lines, now with the values behind:

| SMILES | IC50 [µM] |
| --- | --- |
| CN(CCS(=O)(=O)O)C(=O)CCCCCCC(=O)OCCCc1cc(F)c2ncc(C(=O)NCc3ccc(Cl)cc3)c(O)c2c1 | 11.5 |
| CN(CCS(=O)(=O)O)C(=O)CCCCCCC(=O)OCC#Cc1ccc2ncc(C(=O)NCc3ccc(Cl)cc3)c(O)c2c1 | 16.5 |
| O=C(NCc1ccc(Cl)cc1)c1cnc2c(F)cc(I)cc2c1O [Example 5, N-[(4-Chlorophenyl)methyl]-8-fluoro-4-hydroxy-6-iodo-3-quinolinecarboxamide] | 5.8 |
| COc1cccc2c(O)c(C(=O)NCc3ccc(Cl)cc3)cnc12 [Example 20, N-[(4-Chlorophenyl)methyl]-4-hydroxy-8-methoxy-3-quinoline-carboxamide] | 6.5 |
| O=C(NCc1ccc(Cl)cc1)c1cnc2ccc(Cl)cc2c1O [Example 21, 6-Chloro-N-[(4-chlorophenyl)methyl]-4-hydroxy-3-quinoline-carboxamide] | 4.4 |
| Cc1ccc2ncc(C(=O)NCc3ccc(Cl)cc3)c(O)c2c1 [Example 22, N-[(4-Chlorophenyl)methyl]-4-hydroxy-6-methyl-3-quinoline-carboxamide] | 4 |
| COc1ccc2ncc(C(=O)NCc3ccc(Cl)cc3)c(O)c2c1 [Example 23, N-[(4-Chlorophenyl)methyl]-4-hydroxy-6-methoxy-3-quinoline-carboxamide] | 3.4 |
| N#Cc1ccc2ncc(C(=O)NCc3ccc(Cl)cc3)c(O)c2c1 [Example 24, N-[(4-Chlorophenyl)methyl]-6-cyano-4-hydroxy-3-quinoline-carboxamide] | 4.9 |
| O=C(NCc1ccc(Cl)cc1)c1cnc2cc(NS(=O)(=O)c3ccccc3)ccc2c1O [Example 33, N-[(4-Chlorophenyl)methyl]-4-hydroxy-7-[(phenylsulfonyl)-amino]-3-quinolinecarboxamide] | 24.3 |
| O=C(NCc1ccc(Cl)cc1)c1cnc2cc(I)ccc2c1O [Example 39, N-[(4-Chlorophenyl)methyl]-4-hydroxy-7-iodo-3-quinolinecarboxamide] | < 3.1 |
| O=C(NCc1ccc(Cl)cc1)c1cnc2ccc(I)cc2c1O [Example 40, N-[(4-Chlorophenyl)methyl]-4-hydroxy-6-iodo-3-quinoline-carboxamide] | 3.5 |
| N#CCc1ccc2ncc(C(=O)NCc3ccc(Cl)cc3)c(O)c2c1 [Example 41, N-[(4-Chlorophenyl)methyl]-6-(cyanomethyl)-4-hydroxy-3-quinolinecarboxamide] | 12.1 |
| O=C(NCc1ccc(Cl)cc1)c1cnc2ccc(O)cc2c1O [Example 44, N-[(4-Chlorophenyl)methyl]-4,6-dihydroxy-3-quinoline-carboxamide] | 28.7 |
| O=C(NCc1ccc(Cl)cc1)c1cnc2c(Cl)cccc2c1O [Example 46, 8-Chloro-N-[(4-chlorophenyl)methyl]-4-hydroxy-3-quinolinecarboxamide] | 2.8 |
| O=C(NCc1ccc(Cl)cc1)c1cnc2cc(Cl)ccc2c1O [Example 56, 7-Chloro-N-((4-chlorophenyl)methyl)-4-hydroxy-3-quinoline-carboxamide] | 3.1 |
| O=C(NCc1ccc(Cl)cc1)c1cnc2ccc(Br)cc2c1O [Example 57, 6-Bromo-N-((4-chlorophenyl)methyl)-4-hydroxy-3-quinoline-carboxamide] | 5.2 |
